Test results: article PMC6946680, “Modulation of brain cation-Cl^− cotransport via the SPAK kinase inhibitor ZT-1a” (Nature Communications, 2020)
“And” between values parts separate entries of the source, which are not always exact repeats. Equal values may be shown once.

What was measured:
[1] = system: KCC3 pThr1048; assay: Immunoblot of KCC site 2 phosphorylation (KCC3 Thr1048) in HEK-293 cells transfected with FLAG-KCC3; assay type: cell-based, human
[2] = system: SPAK pSer373; assay: Immunoblot of SPAK/OSR1 p-Ser373/Ser325 in HEK-293 cells; assay type: cell-based, human
Description: (§1) Band intensities were quantitated with ImageJ software. ***p < 0.001; **p < 0.01; *p < 0.05; ns, nonsignificant [by one-way ANOVA with post hoc testing (n = 6, error bars represent the mean ± SEM)].
(§2) Thirty-six hours post transfection, cells were stimulated with either control isotonic or hypotonic medium for a period of 30 min. […] Protein concentrations were determined using the Bradford method. Cells were treated with the indicated concentrations of the SPAK/OSR1 inhibitors.

[3] = system: KCC3 pThr991; assay: Immunoblot of KCC site 1 phosphorylation (KCC3 Thr991) in HEK-293 cells transfected with FLAG-KCC3; assay type: cell-based, human
[4] = system: NKCC1 pThr203/207/212; assay: Immunoblot of NKCC1 p-Thr203/Thr207/Thr212 in HEK-293 cells; assay type: cell-based, human
Description: as §1, §2

[5] = target: T1, GST–[T233E]SPAK kinase (Homo sapiens, UniProt Q9UEW8, T231E); assay: SPAK kinase assay with CATCHtide and IC50 determination; assay type: biochemical
T1 construct: made in house; host or cells: E. coli
Description: II. Experimental procedures
1. Reagents and General methods
Tissue culture reagents were from Life Technologies. P81 phosphocellulose paper was from Whatman […]
and [γ-32P]-ATP was from Perkin Elmer. […] Protein G […]
sepharose was from Amersham. DNA constructs used for transfection were purified from Escherichia coli DH5α using Qiagen or Invitrogen plasmid Maxi kits according to the manufacturer's protocol. All DNA constructs were verified by DNA sequencing.
2. Plasmids, protein expression and purification
DNA clones were from the Division of Signal Transduction Therapy (University of Dundee). The SPAK proteins were expressed in E. Coli and purified as described previously 1.
3. SPAK kinase assays and IC50 determination
SPAK kinase assays employed CATCHtide (cation chloride co-transporter peptide substrate). Peptide kinase assays, performed in triplicate, were set up in a total volume of 50 μl containing 0.5 μg GST– […]
cpm/pmol) and the indicated concentrations of inhibitor dissolved in DMSO. After incubation for 30 min at 30°C, reactions were terminated by spotting 40 μl of the reaction mix onto P81 phosphocellulose paper and immersion in 50 mM phosphoric acid. The papers were washed extensively and incorporation of [γ-32P]ATP into CATCHtide was quantified by Cerenkov counting.
IC50 values were calculated with GraphPad Prism using non-linear regression analysis.
4. Fluorescence polarization […]
concentrations between 0.00001 to 1 mM. Data points are the means of three determinations, with error […]
A Supplemental Fig. 7 Effects of increasing concentrations of ZT-1a on SPAK activity in the absence […]
the absence or presence of five-fold molar excess of wild-type MO25α. b Kinetic data determined for B ZT-1a in the absence or presence of five-fold molar excess of wild-type MO25α. Data are means of […]
presence of wild-type MO25α.

[6] = Hypotonic low Cl, compound concentration 1 (unit not given)
[7] = Hypotonic low Cl, compound concentration 3 (unit not given)
[8] = Hypotonic low Cl, compound concentration 10 (unit not given)
[9] = Isotonic control, compound concentration 1 (unit not given)
[10] = Isotonic control, compound concentration 3 (unit not given)
[11] = Isotonic control, compound concentration 10 (unit not given)

Cc1cc(C(C#N)c2ccc(Cl)cc2)c(Cl)cc1NC(=O)c1ccccc1N (centres unmarked) [ZT-1d]
Site-2 phospho / KCC [1, 6]: 0.37 and 0.41 and 0.35 and 0.482
Site-2 phospho / KCC [1, 7]: 0.29 and 0.25 and 0.23 and 0.287
Site-2 phospho / KCC [1, 8]: 0.105 and 0.124 and 0.08 and 0.117
Site-2 phospho / KCC [1, 9]: 0.412 and 0.477 and 0.43 and 0.521
Site-2 phospho / KCC [1, 10]: 0.209 and 0.165 and 0.191 and 0.177
Site-2 phospho / KCC [1, 11]: 0.108 and 0.08 and 0.114 and 0.094
pSer373 / SPAK [2, 6]: 0.19 and 0.21 and 0.18 and 0.207
pSer373 / SPAK [2, 7]: 0.131 and 0.12 and 0.103 and 0.116
pSer373 / SPAK [2, 8]: 0.04 and 0.025 and 0.035 and 0.031
pSer373 / SPAK [2, 9]: 0.11 and 0.119 and 0.109 and 0.101
pSer373 / SPAK [2, 10]: 0.072 and 0.065 and 0.051 and 0.063
pSer373 / SPAK [2, 11]: 0.022 and 0.031 and 0.038 and 0.028
Site-1 phospho / KCC [3, 6]: 0.516 and 0.487 and 0.55 and 0.508
Site-1 phospho / KCC [3, 7]: 0.509 and 0.49 and 0.511 and 0.521
Site-1 phospho / KCC [3, 8]: 0.276 and 0.218 and 0.234 and 0.258
Site-1 phospho / KCC [3, 9]: 0.49 and 0.471 and 0.48 and 0.466
Site-1 phospho / KCC [3, 10]: 0.355 and 0.36 and 0.38 and 0.371
Site-1 phospho / KCC [3, 11]: 0.218 and 0.232 and 0.255 and 0.241
pThrNKCC1 / NKCC1 [4, 6]: 0.46 and 0.429 and 0.413 and 0.49
pThrNKCC1 / NKCC1 [4, 7]: 0.27 and 0.21 and 0.203 and 0.251
pThrNKCC1 / NKCC1 [4, 8]: 0.11 and 0.077 and 0.102 and 0.085
pThrNKCC1 / NKCC1 [4, 9]: 0.313 and 0.307 and 0.286 and 0.297
pThrNKCC1 / NKCC1 [4, 10]: 0.143 and 0.119 and 0.09 and 0.126
pThrNKCC1 / NKCC1 [4, 11]: 0.055 and 0.031 and 0.042 and 0.047

CN[C@@H]1C[C@H]2O[C@@](C)([C@@H]1OC)n1c3ccccc3c3c4c(c5c6ccccc6n2c5c31)C(=O)NC4 [staurosporine, reference compound]
SPAK kinase activity signal (Fig S3 source data) ([5]; ATP 0.01 mM, inhibitor 1e-5 uM): 880 and 902
SPAK kinase activity signal (Fig S3 source data) ([5]; ATP 0.01 mM, inhibitor 0.0001 uM): 874
SPAK kinase activity signal (Fig S3 source data) ([5]; ATP 0.01 mM, inhibitor 0.001 uM): 875
SPAK kinase activity signal (Fig S3 source data) ([5]; ATP 0.01 mM, inhibitor 0.03 uM): 535 and 689 and 604
SPAK kinase activity signal (Fig S3 source data) ([5]; ATP 0.01 mM, inhibitor 0.1 uM): 405 and 495 and 442
SPAK kinase activity signal (Fig S3 source data) ([5]; ATP 0.01 mM, inhibitor 0.3 uM): 385 and 459 and 417
SPAK kinase activity signal (Fig S3 source data) ([5]; ATP 0.01 mM, inhibitor 1 uM): 408 and 363
SPAK kinase activity signal (Fig S3 source data) ([5]; ATP 0.01 mM, inhibitor 10 uM): 206 and 221
SPAK kinase activity signal (Fig S3 source data) ([5]; ATP 0.01 mM, inhibitor 100 uM): 109 and 126
SPAK kinase activity signal (Fig S3 source data) ([5]; ATP 0.01 mM, inhibitor 1000 uM): 95 and 64 and 75
SPAK kinase activity signal (Fig S3 source data) ([5]; ATP 0.1 mM, inhibitor 1e-5 uM): 880 and 897
SPAK kinase activity signal (Fig S3 source data) ([5]; ATP 0.1 mM, inhibitor 0.0001 uM): 874
SPAK kinase activity signal (Fig S3 source data) ([5]; ATP 0.1 mM, inhibitor 0.001 uM): 875 and 869
SPAK kinase activity signal (Fig S3 source data) ([5]; ATP 0.1 mM, inhibitor 0.03 uM): 715
SPAK kinase activity signal (Fig S3 source data) ([5]; ATP 0.1 mM, inhibitor 0.1 uM): 705 and 625 and 675
SPAK kinase activity signal (Fig S3 source data) ([5]; ATP 0.1 mM, inhibitor 0.3 uM): 565 and 509 and 529
SPAK kinase activity signal (Fig S3 source data) ([5]; ATP 0.1 mM, inhibitor 1 uM): 453 and 458 and 431
SPAK kinase activity signal (Fig S3 source data) ([5]; ATP 0.1 mM, inhibitor 3 uM): 389 and 363
SPAK kinase activity signal (Fig S3 source data) ([5]; ATP 0.1 mM, inhibitor 100 uM): 112 and 127
SPAK kinase activity signal (Fig S3 source data) ([5]; ATP 0.1 mM, inhibitor 1000 uM): 114 and 95
SPAK kinase activity signal (Fig S3 source data) ([5]; ATP 1 mM, inhibitor 1e-5 uM): 880
SPAK kinase activity signal (Fig S3 source data) ([5]; ATP 1 mM, inhibitor 0.0001 uM): 874
SPAK kinase activity signal (Fig S3 source data) ([5]; ATP 1 mM, inhibitor 0.001 uM): 875
SPAK kinase activity signal (Fig S3 source data) ([5]; ATP 1 mM, inhibitor 0.3 uM): 714 and 703
SPAK kinase activity signal (Fig S3 source data) ([5]; ATP 1 mM, inhibitor 1 uM): 504 and 558 and 522
SPAK kinase activity signal (Fig S3 source data) ([5]; ATP 1 mM, inhibitor 3 uM): 489 and 412 and 459
SPAK kinase activity signal (Fig S3 source data) ([5]; ATP 1 mM, inhibitor 10 uM): 406 and 421 and 391
SPAK kinase activity signal (Fig S3 source data) ([5]; ATP 1 mM, inhibitor 100 uM): 356
SPAK kinase activity signal (Fig S3 source data) ([5]; ATP 1 mM, inhibitor 1000 uM): 214 and 183
